Experimental findings from ChEMBL document CHEMBL1926526, “Mefloquine-oxazolidine derivatives, derived from mefloquine and arenecarbaldehydes: In vitro activity including against the multidrug-resistant tuberculosis strain T113” (Bioorg Med Chem, 2012) are described below.

Data set [1] is described as follows: Cytotoxicity against mouse macrophages assessed as cell viability at 100 uM after 18 hrs by MTT assay. The data set is classed as cell-based, Macrophage. The following applies: read-out: Activity.
Data set [2] relates to Mycobacterium tuberculosis. The data set is described as follows: Antimycobacterial activity against Mycobacterium tuberculosis H37Rv ATCC 27294 by alamar blue assay. The data set is classed as functional. A general note: Alamar Blue is a resazurin reagent that responds to reducing activity.
Data set [3] is described as follows: Cytotoxicity against mouse macrophages assessed as cell viability at 1 uM after 18 hrs by MTT assay. The class given is cell-based, Macrophage. The following applies: read-out: Activity. (Formazan colour is commonly taken as a measure of viable cells.)
A short description of data set [4]: Cytotoxicity against mouse macrophages assessed as cell viability at 10 uM after 18 hrs by MTT assay. The class given is cell-based, Macrophage. The following applies: read-out: Activity.
Data set [5] relates to Mycobacterium tuberculosis. Put plainly: Ratio of mefloquine MIC to compound MIC for Mycobacterium tuberculosis H37Rv ATCC 27294 by alamar blue assay. The class given is functional.

By MIC is commonly meant the lowest concentration found to suppress growth. A high value points to a need for much substance. As for `FC(F)(F)c1cc([C@@H]2OC(c3cccc(Cl)c3Cl)N3CCCC[C@H]23)c2cccc(C(F)(F)F)c2n1` (mixture of isomers), the viability at 18 h, 100 µM in data set [1] is 100%. The compound further yielded an MIC in data set [2] greater than 250 µM. Besides, the viability at 18 h, 1 µM in data set [3] worked out at 100%. Further, the viability at 18 h, 10 µM in data set [4] was 100%.
As for `COc1cc(C2O[C@@H](c3cc(C(F)(F)F)nc4c(C(F)(F)F)cccc34)[C@H]3CCCCN23)cc(OC)c1OC` (mixture of isomers), in data set [1], the viability at 18 h, 100 µM is 97%. Also, 22.5 µM was the least that counted as inhibitory in data set [2] (MIC). Further, the viability at 18 h, 1 µM in data set [3] turned out to be 100%. Also, the viability at 18 h, 10 µM in data set [4] is 100%.
In the case of `O=[N+]([O-])c1ccc(C2O[C@@H](c3cc(C(F)(F)F)nc4c(C(F)(F)F)cccc34)[C@H]3CCCCN23)s1` (mixture of isomers), the viability at 18 h, 100 µM in data set [1] stood at 100%. Besides, in data set [5], the Ratio is given as 2.7. This compound displayed an MIC in data set [2] of 12.1 µM. Moreover, the viability at 18 h, 1 µM in data set [3] was found to be 100%. In data set [4], the viability at 18 h, 10 µM turned out to be 100%.
Regarding `CCOc1cccc(C2O[C@@H](c3cc(C(F)(F)F)nc4c(C(F)(F)F)cccc34)[C@H]3CCCCN23)c1` (mixture of isomers), in data set [1], the viability at 18 h, 100 µM worked out at 95%. In data set [2], this compound showed an MIC of 24.5 µM. For the same compound, the viability at 18 h, 1 µM in data set [3] stood at 100%. Besides, the viability at 18 h, 10 µM in data set [4] worked out at 100%.
In the case of `FC(F)(F)c1cc([C@@H]2OC(c3ccc(Cl)cc3Cl)N3CCCC[C@H]23)c2cccc(C(F)(F)F)c2n1` (mixture of isomers), in data set [1], the viability at 18 h, 100 µM turned out to be 98%. The compound also registered an MIC in data set [2] greater than 250 µM. Moreover, the viability at 18 h, 1 µM in data set [3] turned out to be 100%. In addition, the viability at 18 h, 10 µM in data set [4] worked out at 100%.
Take `FC(F)(F)c1cc([C@@H]2OC(c3c(Cl)cccc3Cl)N3CCCC[C@H]23)c2cccc(C(F)(F)F)c2n1` (mixture of isomers): the viability at 18 h, 100 µM in data set [1] amounted to 59%. For the same compound, the MIC in data set [2] is greater than 250 µM. Besides, the viability at 18 h, 1 µM in data set [3] stood at 93%. Besides, the viability at 18 h, 10 µM in data set [4] was determined as 92%.
Take `O=[N+]([O-])c1ccc(C2O[C@@H](c3cc(C(F)(F)F)nc4c(C(F)(F)F)cccc34)[C@H]3CCCCN23)o1` (mixture of isomers): the viability at 18 h, 100 µM in data set [1] turned out to be 100%. The compound further yielded an MIC in data set [2] of 99.8 µM. Besides, in data set [3], the viability at 18 h, 1 µM was 100%. Besides, the viability at 18 h, 10 µM in data set [4] amounted to 100%.
On to `OC(c1cc(C(F)(F)F)nc2c(C(F)(F)F)cccc12)C1CCCCN1` (stereo not given) [MEFLOQUINE], for which the viability at 18 h, 100 µM in data set [1] was 70%. Also, the viability at 18 h, 1 µM in data set [3] was found to be 95%. In data set [4], the viability at 18 h, 10 µM was 81%.
For the compound `FC(F)(F)c1cc([C@@H]2OC(c3ccc(Cl)c(Cl)c3)N3CCCC[C@H]23)c2cccc(C(F)(F)F)c2n1` (mixture of isomers), in data set [1], the viability at 18 h, 100 µM amounted to 100%. This compound returned an MIC in data set [2] greater than 250 µM. For the same compound, in data set [3], the viability at 18 h, 1 µM was 100%. In data set [4], the viability at 18 h, 10 µM amounted to 100%.
`COc1cccc(C2O[C@@H](c3cc(C(F)(F)F)nc4c(C(F)(F)F)cccc34)[C@H]3CCCCN23)c1OC` (mixture of isomers): in data set [1], the viability at 18 h, 100 µM came to 100%. For the same compound, the Ratio in data set [5] stood at 2.8. Also, it took 11.9 µM to inhibit growth in data set [2] (MIC). Moreover, the viability at 18 h, 1 µM in data set [3] came out at 100%. Also, the viability at 18 h, 10 µM in data set [4] came to 100%.
On to `FC(F)(F)c1cc([C@@H]2OC(c3ncc[nH]3)N3CCCC[C@H]23)c2cccc(C(F)(F)F)c2n1` (mixture of isomers), for which the viability at 18 h, 100 µM in data set [1] amounted to 100%. Further, the MIC in data set [2] is 27.4 µM. Besides, the viability at 18 h, 1 µM in data set [3] came to 100%. Moreover, the viability at 18 h, 10 µM in data set [4] was determined as 100%.
